Measured values published in patent US7816521B2, “1,2,4-benzotriazine-1,4-dioxides” (Auckland Uniservices Limited, priority 2004, dated 2010).
Values after ≈ are worked out from the molar mass of the structure shown.

Legend:
[1] = Plasma pharmacokinetics, AUC of free drug in CD-1 nude mice; type: in vivo, mouse; settings: CD-1 nude, mouse, plasma, ip, mouse plasma, free drug, at the MTD or 75% of the MTD; Table 2; read-out: AUC
Description: The area under the concentration time curve for free drug (AUCf) in mouse plasma at the maximum tolerated dose (MTD) was determined either experimentally or by calculation.
The compound was formulated in a suitable vehicle (e.g. 0.9% saline, 5% DMSO in 0.9% saline) and administered intraperitoneally (i.p.) as single dose to CD-1 nude mice in a dose-escalating format using 1.33-fold dose increments.
The compound was administered to CD-1 nude mice in a suitable formulation as a single dose (i.p.) at the MTD. Blood samples were collected by retro-orbital sinus bleed or cardiac puncture after which the mouse was culled, or by serial bleeding from the tail vein. Typical time points were 15, 30, 60, and 120 min after administration. Blood was collected in a heparinised container and centrifuged to collect the plasma. The plasma concentration of the compound was determined by HPLC or LCMS using suitable sample preparation and analytical methods. Calibration was done with internal or external standards. The area under the concentration-time curve (AUC) for total (free plus bound) drug was calculated using the linear/log trapezoidal rule and extrapolation to infinity OR standard non-compartmental (PK) modelling.
Plasma protein binding was measured by the determination of the free fraction (FF) by equilibrium dialysis at 37° C. in 50% (v/v) mouse plasma in phosphate-buffered saline (pH 7.4), using a single drug concentration at or near the observed or extrapolated maximum concentration in plasma (Cmax). Compound concentrations after dialysis were determined by HPLC or LCMS.
AUCf for the compound administered as a single dose (i.p.) to CD-1 nude mice at the MTD can be estimated using the following regression equation: Log10(AUCf)=a+b×log Pneutral+c×log10(IC50)+d×log10(HCR)+e×log10(DMCL)+f×log10(kmet)+g×(log Pneutral)^2 where the coefficients are described in the following table: […]

[2] = test system: hypoxic cells in HT29 tumours; test: HT29 excision assay (drug after 20 Gy radiation, clonogenic survival); type: in vivo, human; settings: log10 kill of hypoxic cells in HT29 tumours, additional to radiation alone; MTD or 75% of MTD; Table 2
From the text: In order to test the validity of this PK/PD model as a tool for predicting the antitumour activity of TPZ analogues, the inventors determined the key PK/PD parameters for 13 TPZ analogues, and TPZ itself, for the HT29 human colon carcinoma cell line. These parameters were then used to calculate the expected killing in hypoxic regions of HT29 tumours following a single intraperitoneal dose of the compounds at their maximum tolerated dose. The results of this calculation were then compared with measured killing of hypoxic cells in HT29 tumours, determined by administering the compounds immediately (within 5 min) after gamma irradiation (cobalt 60, 20 Gy) to sterilise oxygenated cells in the tumours. Tumours were removed 18 hours later and the number of surviving cells determined by clonogenic assay. The measured PK/PD parameters, model prediction (using the above 3D microvascular network), and experimentally determined hypoxic cell kill is shown in Table 1, and the relationship between predicted and measured cell kill in FIG. 4. The prediction is statistically highly significant (p=0.001, Fisher exact test). […] If the extravascular transport component was excluded from the model, the R^2 for this regression was only 0.28 and the relationship was not statistically significant.
Animals were treated with radiation alone (RAD, 20 Gy whole body); RAD+TPZ (316 μmol/kg); compound 3 (562 μmol/kg); RAD+compound 3 (562 μmol/kg). Tumours were excised 18 hr after treatment and clonogenic survival determined by staining colonies 14 days later. Each symbol represents a separate tumour. p<0.01 (one way ANOVA with Dunnett's test) for RAD+compound 3 and for RAD+TPZ versus RAD only. Horizontal lines are the historical means for untreated controls (upper line) and 20 Gy radiation only (lower line).
Compounds were evaluated with single dose radiation using s.c. HT29 tumors (average of two largest diameters 7-10 mm) grown by inoculating 10^7 cells (obtained by enzymatic dissociation of multicellular spheroids). Drugs were administered as single i.p. doses at their MTD with the following groups in each experiment. A: vehicle control, B: test drug, C: Radiation (20 Gy, cobalt-60, whole body irradiation), D: TPZ (316 μmol/kg) 5 min after radiation, E: Test drug 5 min after radiation. Each group included 3 (A, B) or 5 (C-E) mice. Tumors were excised 18 hr after treatment and plated to determine clonogenicity. Hypoxic cytotoxicity is determined by the difference in surviving fraction between groups C and E, while comparison of A and B evaluates oxic cell killing. Total yield of clonogens was used as the key parameter if cell yields were affected by treatment. Results of this assay are illustrated for compound 3 (and TPZ) in FIG. 5.

[3] = Solubility in culture medium; type: physicochemical; settings: culture medium (αMEM with 5% foetal bovine serum), plasma or biological fluid, thermodynamic from solid; culture medium (αMEM, 5% foetal bovine serum), pH 7.4; no unit in table, threshold is 2 mM
Description: Solubility is determined in laboratory culture medium (alpha minimal essential medium (αMEM) with 5% foetal bovine serum) saturated with 5% carbon dioxide at pH 7.4, by addition of excess compound and sonication at ambient temperature for 15 minutes. Alternatively the compound is diluted from a concentrated stock solution in DMSO into culture medium to give a final DMSO concentration <1%. The mixture is centrifuged at 13,000 rpm for 6 minutes and the concentration of drug in the supernatant solution is then determined by HPLC using a standard reference solution in a suitable solvent.

[4] = test system: human colon carcinoma cell line HT-29; test: Proliferation assay (IC50) under aerobic and hypoxic conditions; type: cell-based; settings: for IC50: Homo sapiens, HT-29, HT29, anoxic, 4 hr exposure; for HCR: hypoxic cytotoxicity ratio: aerobic IC50 / hypoxic IC50, HT29
Description: Compounds representative of the invention were evaluated under both aerobic and hypoxic conditions in a proliferation assay (IC50) using the human colon carcinoma cell line HT-29 as previously described [Hay et al, J. Med. Chem, 2003, 46, 169]. For each experiment, compounds were simultaneously tested under both oxic and hypoxic conditions and included TPZ as an independent internal control at the front and back of the assay. In all cases, a 8-methyl-5-nitroquinoline derivative was used as a second internal control to confirm that strict hypoxia was present during the experiment [Siim et al., Br. J. Cancer 1994, 70, 596].

SMILES	AUC [1]	HT29 log kill [2]	solubility [3]	IC50 [4]	HCR [4]
COCCOc1ccc2c(c1)[n+]([O-])c(NCCN(C)C)n[n+]2[O-] [Q, N^1-[6-(2-Methoxyethoxy)-1,4-dioxido-1,2,4-benzotriazin-3-yl]-N^2,N^2-dimethyl-1,2-ethanediamine]	256 µM·h	0.53	51.2 mM (≈ 16.6 mg/mL)	4.98 µM	162.0
CCc1n[n+]([O-])c2ccc(OCCN(C)C)cc2[n+]1[O-] [T, 2-[(3-Ethyl-1,4-dioxido-1,2,4-benzotriazin-6-yl)oxy]-N, N-dimethylethaneamine]	55.7 µM·h	0.88	48.5 mM (≈ 13.5 mg/mL)	1.33 µM	307.2
CCOc1ccc2c(c1)[n+]([O-])c(NCCN(C)C)n[n+]2[O-] [R, N^1,N^1-Dimethyl-N^2-(6-ethoxy-1,4-dioxido-1,2,4-benzotriazin-3-yl)-1,2-ethanediamine]	82.4 µM·h	0.83	50.3 mM (≈ 14.8 mg/mL)	2.6 µM	120.6
COc1ccc2c(c1)[n+]([O-])c(NCCN(C)C)n[n+]2[O-] [P, N^1-(6-Methoxy-1,4-dioxido-1,2,4-benzotriazin-3-yl)-N^2,N^2-dimethyl-1,2-ethanediamine]	240 µM·h	1.84	45.5 mM (≈ 12.7 mg/mL)	7.65 µM	89.3
CCc1n[n+]([O-])c2ccc(OCCCN3CCOCC3)cc2[n+]1[O-] [U, 3-Ethyl-6-[3-(4-morpholinyl)propoxy]-1,2,4-benzotriazine 1,4-Dioxide]	162 µM·h	1.66	46.7 mM (≈ 15.6 mg/mL)	6.17 µM	166.2
Cc1ccc2c(c1)[n+]([O-])c(NCCCN1CCOCC1)n[n+]2[O-] [O, 6-Methyl-N-[3-(4-morpholinyl)propyl]-1,2,4-benzotriazin-3-amine 1,4-Dioxide]	195 µM·h	1.28	42.6 mM (≈ 13.6 mg/mL)	15.5 µM	24.7
CCc1ccc2c(c1)[n+]([O-])c(NCCCN1CCOCC1)n[n+]2[O-] [S, 6-Ethyl-N-[3-(4-morpholinyl)propyl]-1,2,4-benzotriazin-3-amine 1,4-Dioxide]	94.9 µM·h	0.82	54.9 mM (≈ 18.3 mg/mL)	10.4 µM	35.0
